pIC50: −log10 of the molar value.
Assays:
[1] = test system: SNU638 (stomach cancer cells); test: Inhibitory activity against cancer cells (sulforhodamine B staining); format: cell-based; settings: 3 days, SRB staining
Method: (§1) In order to examine the anticancer activity of the nucleoside derivatives of the present invention synthesized in the Preparation Examples, the ICso of each of A549 (lung cancer cells), HCT116 (colon cancer cells), MDA-MB-231 (breast cancer cells), SK-Hep-1 (liver cancer cells), SNU638 (stomach cancer cells) and PC-3 (prostate cancer cells) against cancer cells was measured.
(§2) The test method is as follows. Cells were allowed to stand for 1 day and set as a control on day 0. Further, after a test material was added to the cells, the cells were allowed to stand for 3 days. Thereafter, the cells were stained with 1% acetic acid and 0.4% sulforhodamine B. The stained cells were dried and dissolved in 10 mM Tris (pH 10.0). Absorbance was measured at 515 nm, and the degree of cell division was determined using the following equation. After calculation as Cell division (%)=(average absorbancetest material−average absorbanceday 0)/(average absorbance control-average absorbanceday 0)×100, the degree of cell division was calculated through a non-linear regression analysis using Table Curve 2D v5.01 (Systat Software Inc., San Jose, CA, USA).

[2] = test system: HCT116 (colon cancer cells); test: as above; format: cell-based; settings: 3 days, SRB staining
Method: as §1, §2

[3] = test system: MDA-MB-231 (breast cancer cells); test: as above; format: cell-based; settings: 3 days, SRB staining
Method: as §1, §2

[4] = test system: PC-3 (prostate cancer cells); test: as above; format: cell-based; settings: 3 days, SRB staining
Method: as §1, §2

[5] = test system: A549 (lung cancer cells); test: as above; format: cell-based; settings: 3 days, SRB staining
Method: as §1, §2

[6] = test system: SK-Hep-1 (liver cancer cells); test: as above; format: cell-based; settings: 3 days, SRB staining
Method: as §1, §2

[7] = biological target: T1, DYRK1B (Homo sapiens, UniProt Q9Y463); test: Kinase inhibition test (DNA-tagged kinase, affinity resin, qPCR readout); format: binding; design: key: (−) indicates no effect; (+) indicates weak inhibitory activity; (++) indicates a moderate level of inhibitory activity; (+++) indicates strong inhibitory activity; settings: 1 μM of compound
T1 construct: made in house
T1 sequence (Q9Y463 whole entry): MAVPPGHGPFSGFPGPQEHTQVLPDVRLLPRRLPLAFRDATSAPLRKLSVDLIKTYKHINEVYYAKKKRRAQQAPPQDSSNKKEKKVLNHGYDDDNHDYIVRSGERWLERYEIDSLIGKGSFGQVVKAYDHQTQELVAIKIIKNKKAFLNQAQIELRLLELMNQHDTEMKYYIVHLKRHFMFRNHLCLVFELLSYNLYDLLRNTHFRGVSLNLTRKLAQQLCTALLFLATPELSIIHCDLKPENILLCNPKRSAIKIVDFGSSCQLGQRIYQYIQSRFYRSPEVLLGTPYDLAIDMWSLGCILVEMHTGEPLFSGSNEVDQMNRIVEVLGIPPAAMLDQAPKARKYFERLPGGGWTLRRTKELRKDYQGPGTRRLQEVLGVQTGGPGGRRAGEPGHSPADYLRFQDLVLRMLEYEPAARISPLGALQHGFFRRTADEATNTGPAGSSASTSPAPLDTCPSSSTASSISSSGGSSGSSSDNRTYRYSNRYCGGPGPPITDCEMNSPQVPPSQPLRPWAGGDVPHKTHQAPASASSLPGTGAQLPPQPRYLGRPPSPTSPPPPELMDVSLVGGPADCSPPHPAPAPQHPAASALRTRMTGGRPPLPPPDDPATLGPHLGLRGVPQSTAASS
Excerpt: (§3) In order to examine the inhibitory activity of the nucleoside derivatives of the present invention synthesized in the Preparation Examples against kinases, the nucleoside derivatives were confirmed to have inhibitory activity against neurotrophic tyrosine kinase receptor type 1 or tropomyosin receptor kinase A (NTRK1), casein kinase 1 isoform delta (CSNK1D), dual specificity tyrosine-phosphorylation-regulated kinase 1A (DYRK1A), dual specificity tyrosine-phosphorylation-regulated kinase 1B (DYRK1B) and receptor-type tyrosine-protein kinase or fms like tyrosine kinase 3 or cluster of differentiation antigen 135 (CD135) or fetal liver kinase-2 (Flk2) (FLT3).
(§4) The inhibition measurement method is as follows. Most of the kinases were produced by culturing a phage in which BL21 E. coli was tagged with a kinase at 32° C. until lysis, followed by centrifugation and filtration. Further, the kinases were produced using HEK-293 cells. Thereafter, the kinases were DNA tagged for qPCR. After an affinity resin was prepared by stirring a biotin-tagged substrate onto streptavidin-coated beads for 30 minutes, a non-specifically bound substrate was washed with a buffer (SeaBlock (Pierce), 1% BSA, 0.05% Tween 20, 1 mM DTT).
(§5) For a kinase test, the kinase, the substrate, the affinity resin, and a test material dissolved in dimethyl sulfoxide were stirred together in a buffer (20% SeaBlock, 0.17×PBS, 0.05% Tween20, and 6 mM DTT) at room temperature for 1 hour. Thereafter, an affinity substrate was washed with a buffer (1×PBS, 0.05% Tween20), and then suspended in an elution buffer (1×PBS, 0.05% Tween20, 0.5 μM non-biotinylated affinity ligand), and the resulting suspension was stirred. The concentration of the kinase was quantified by qPCR.

[8] = biological target: T2, CSNK1D (Homo sapiens, UniProt P48730); test: as above; format: binding; design: key: (−) indicates no effect; (+) indicates weak inhibitory activity; (++) indicates a moderate level of inhibitory activity; (+++) indicates strong inhibitory activity; settings: 1 μM of compound
T2 construct: made in house
T2 sequence (P48730 whole entry): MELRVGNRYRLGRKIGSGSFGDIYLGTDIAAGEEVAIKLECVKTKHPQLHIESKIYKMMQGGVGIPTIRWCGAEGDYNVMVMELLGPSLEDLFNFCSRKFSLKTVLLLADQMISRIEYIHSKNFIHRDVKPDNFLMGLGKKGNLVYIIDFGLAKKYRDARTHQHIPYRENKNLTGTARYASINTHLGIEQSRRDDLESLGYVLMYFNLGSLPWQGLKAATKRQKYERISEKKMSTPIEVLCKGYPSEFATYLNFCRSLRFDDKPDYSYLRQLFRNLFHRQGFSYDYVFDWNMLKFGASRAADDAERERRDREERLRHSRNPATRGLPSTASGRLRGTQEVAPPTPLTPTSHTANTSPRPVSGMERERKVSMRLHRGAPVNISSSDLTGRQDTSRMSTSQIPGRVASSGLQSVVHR
Excerpt: as §3, §4, §5

[9] = biological target: T3, NTRK1 (Homo sapiens, UniProt P04629); test: as above; format: binding; design: key: (−) indicates no effect; (+) indicates weak inhibitory activity; (++) indicates a moderate level of inhibitory activity; (+++) indicates strong inhibitory activity; settings: 1 μM of compound
T3 construct: made in house
T3 sequence (P04629 33-796): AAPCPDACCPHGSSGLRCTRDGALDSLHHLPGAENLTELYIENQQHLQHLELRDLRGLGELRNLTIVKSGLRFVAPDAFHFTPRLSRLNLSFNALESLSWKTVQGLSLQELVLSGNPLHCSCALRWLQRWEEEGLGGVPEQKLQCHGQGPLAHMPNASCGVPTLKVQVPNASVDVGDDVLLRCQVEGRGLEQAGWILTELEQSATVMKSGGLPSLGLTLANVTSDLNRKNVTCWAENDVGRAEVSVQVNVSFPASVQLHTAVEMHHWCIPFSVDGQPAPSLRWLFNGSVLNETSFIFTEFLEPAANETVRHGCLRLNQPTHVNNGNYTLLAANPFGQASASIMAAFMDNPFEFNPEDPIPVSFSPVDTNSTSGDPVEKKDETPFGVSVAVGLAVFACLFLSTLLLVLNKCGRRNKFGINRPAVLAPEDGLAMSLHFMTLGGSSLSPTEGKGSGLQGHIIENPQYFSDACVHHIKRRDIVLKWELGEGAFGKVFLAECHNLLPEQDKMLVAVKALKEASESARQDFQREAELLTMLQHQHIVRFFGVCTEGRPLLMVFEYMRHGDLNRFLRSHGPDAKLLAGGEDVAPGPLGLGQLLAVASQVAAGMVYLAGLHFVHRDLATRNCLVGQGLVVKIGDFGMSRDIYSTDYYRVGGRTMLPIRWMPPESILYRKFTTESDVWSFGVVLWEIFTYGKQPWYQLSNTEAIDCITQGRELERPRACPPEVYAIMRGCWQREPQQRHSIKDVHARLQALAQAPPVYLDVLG
Excerpt: as §3, §4, §5

[10] = biological target: T4, DYRK1A (Homo sapiens, UniProt Q13627); test: as above; format: binding; design: key: (−) indicates no effect; (+) indicates weak inhibitory activity; (++) indicates a moderate level of inhibitory activity; (+++) indicates strong inhibitory activity; settings: 1 μM of compound
T4 construct: made in house
Excerpt: as §3, §4, §5

NC[C@H]1S[C@@H](n2cc(C(N)=O)c3c(N)ncnc32)[C@H](O)[C@@H]1O [Compound 10c]
pIC50 [1]: 5.59
pIC50 [2]: 5.86
pIC50 [3]: 5.61
pIC50 [4]: 5.56
pIC50 [5]: 5.60
pIC50 [6]: 5.75
DYRK1B inhibitory activity [7]: ++
CSNK1D inhibitory activity [8]: ++
NTRK1 inhibitory activity [9]: ++
DYRK1A inhibitory activity [10]: ++

N#Cc1cn([C@@H]2S[C@H](CNC(N)=O)[C@@H](O)[C@H]2O)c2ncnc(N)c12 [Compound 11aii]
pIC50 [1]: 5.17
pIC50 [2]: 5.74
pIC50 [3]: 5.97
pIC50 [4]: 5.45
pIC50 [5]: 5.61
pIC50 [6]: 5.54
DYRK1B inhibitory activity [7]: ++
CSNK1D inhibitory activity [8]: ++
NTRK1 inhibitory activity [9]: ++
DYRK1A inhibitory activity [10]: ++

NC(=O)NC[C@H]1S[C@@H](n2cc(C(N)=O)c3c(N)ncnc32)[C@H](O)[C@@H]1O [Compound 11aiii]
pIC50 [1]: 5.25
pIC50 [2]: 5.87
pIC50 [3]: 5.61
pIC50 [4]: 5.55
pIC50 [5]: 5.34
pIC50 [6]: 5.13
DYRK1B inhibitory activity [7]: ++
CSNK1D inhibitory activity [8]: ++
NTRK1 inhibitory activity [9]: ++
DYRK1A inhibitory activity [10]: ++

C#Cc1cn([C@@H]2S[C@H](CNCC)[C@@H](O)[C@H]2O)c2ncnc(N)c12 [Compound 11b, (2R,3R,4S,5R)-2-(4-amino-5-ethynyl-7H-pyrrolo[2,3-d]pyrimidin-7-yl)-5-((ethylamino)methyl)tetrahydrothiophene-3,4-diol]
pIC50 ([1]; Homo sapiens, SNU-638, 72 h): 4.97
pIC50 ([2]; Homo sapiens, HCT-116, 72 h): 4.89
pIC50 ([3]; Homo sapiens, 72 h): 4.84
pIC50 ([4]; 72 h): 4.85
pIC50 ([5]; Homo sapiens, 72 h): 4.91
pIC50 ([6]; Homo sapiens, SK-HEP1, 72 h): 4.89
DYRK1B inhibitory activity [7]: ++
CSNK1D inhibitory activity [8]: +++
NTRK1 inhibitory activity [9]: +++
DYRK1A inhibitory activity [10]: ++

C#Cc1cn([C@@H]2SC[C@@H](O)[C@H]2O)c2ncnc(N)c12 [Compound 13a]
pIC50 [1]: 5.92
pIC50 [2]: 6.07
pIC50 [3]: 5.94
pIC50 [4]: 5.86
pIC50 [5]: 6.23
pIC50 [6]: 5.90
DYRK1B inhibitory activity [7]: ++
CSNK1D inhibitory activity [8]: ++
NTRK1 inhibitory activity [9]: ++
DYRK1A inhibitory activity [10]: ++

Nc1ncnc2c1c(-c1ccco1)cn2[C@@H]1SC[C@@H](O)[C@H]1O [Compound 13b]
pIC50 [1]: 5.88
pIC50 [2]: 6.07
pIC50 [3]: 5.88
pIC50 [4]: 5.76
pIC50 [5]: 6.02
pIC50 [6]: 6.19
DYRK1B inhibitory activity [7]: +++
CSNK1D inhibitory activity [8]: ++
NTRK1 inhibitory activity [9]: ++
DYRK1A inhibitory activity [10]: +++

Nc1ncnc2c1c(-c1cccs1)cn2[C@@H]1SC[C@@H](O)[C@H]1O [Compound 13c]
pIC50 [1]: 5.39
pIC50 [2]: 5.47
pIC50 [3]: 5.29
pIC50 [4]: 5.15
pIC50 [5]: 5.54
pIC50 [6]: 5.56
DYRK1B inhibitory activity [7]: ++
CSNK1D inhibitory activity [8]: +++
NTRK1 inhibitory activity [9]: +++
DYRK1A inhibitory activity [10]: ++

Nc1ncnc2c1c(-c1ccccc1)cn2[C@@H]1SC[C@@H](O)[C@H]1O [Compound 13d]
pIC50 [1]: 5.25
pIC50 [2]: 5.37
pIC50 [3]: 5.23
pIC50 [4]: 5.00
pIC50 [5]: 5.17
pIC50 [6]: 5.11
DYRK1B inhibitory activity [7]: ++
CSNK1D inhibitory activity [8]: ++
NTRK1 inhibitory activity [9]: ++
DYRK1A inhibitory activity [10]: ++

C=Cc1cn([C@@H]2SC[C@@H](O)[C@H]2O)c2ncnc(N)c12 [Compound 13e]
pIC50 [1]: 5.45
pIC50 [2]: 5.55
pIC50 [3]: 5.27
pIC50 [4]: 5.27
pIC50 [5]: 5.36
pIC50 [6]: 5.29
DYRK1B inhibitory activity [7]: ++
CSNK1D inhibitory activity [8]: ++
NTRK1 inhibitory activity [9]: ++
DYRK1A inhibitory activity [10]: ++

N#Cc1cn([C@@H]2SC[C@@H](O)[C@H]2O)c2ncnc(N)c12 [Compound 13f]
pIC50 [1]: 5.03
pIC50 [2]: 5.20
pIC50 [3]: 5.62
pIC50 [4]: 5.61
pIC50 [5]: 5.63
pIC50 [6]: 5.24
DYRK1B inhibitory activity [7]: +++
CSNK1D inhibitory activity [8]: ++
NTRK1 inhibitory activity [9]: ++
DYRK1A inhibitory activity [10]: ++

NC(=O)c1cn([C@@H]2SC[C@@H](O)[C@H]2O)c2ncnc(N)c12 [Compound 13g]
pIC50 [1]: 5.07
pIC50 [2]: 5.01
pIC50 [3]: 5.25
pIC50 [4]: 5.65
pIC50 [5]: 5.28
pIC50 [6]: 5.67
DYRK1B inhibitory activity [7]: +++
CSNK1D inhibitory activity [8]: +++
NTRK1 inhibitory activity [9]: +++
DYRK1A inhibitory activity [10]: ++

C#Cc1cn([C@@H]2S[C@H](CO)[C@@H](O)[C@H]2O)c2nc(Cl)nc(N)c12 [Compound 14, (2R,3R,4S,5R)-2-(4-amino-2-chloro-5-ethynyl-7H-pyrrolo[2,3-d]pyrimidin-7-yl)-5-(hydroxymethyl)tetrahydrothiophene-3,4-diol]
pIC50 ([1]; Homo sapiens, SNU-638, 72 h): 5.26
pIC50 ([2]; Homo sapiens, HCT-116, 72 h): 5.14
pIC50 ([3]; Homo sapiens, 72 h): 6.28
pIC50 ([4]; 72 h): 5.61
pIC50 ([5]; Homo sapiens, 72 h): 6.46
pIC50 ([6]; Homo sapiens, SK-HEP1, 72 h): 5.86
DYRK1B inhibitory activity [7]: +++
CSNK1D inhibitory activity [8]: ++
NTRK1 inhibitory activity [9]: ++
DYRK1A inhibitory activity [10]: +++
